Assays:
[1] = biological target: T1, Indoleamine 2,3-dioxygenase 1 (Homo sapiens, UniProt P14902); test: Inhibition of human recombinant N-terminus 6X-histidine-tagged indoleamine 2,3-dioxygenase expressed in Escherichia coli assessed as inhibition of L-tryptophan to N-formylkynurenine formation measured as residual enzyme activity at 10 uM incubated for 10 mins prior to substrate addition measured …; values are per cent of control
Target sequence in this assay (P14902 whole entry, looked up): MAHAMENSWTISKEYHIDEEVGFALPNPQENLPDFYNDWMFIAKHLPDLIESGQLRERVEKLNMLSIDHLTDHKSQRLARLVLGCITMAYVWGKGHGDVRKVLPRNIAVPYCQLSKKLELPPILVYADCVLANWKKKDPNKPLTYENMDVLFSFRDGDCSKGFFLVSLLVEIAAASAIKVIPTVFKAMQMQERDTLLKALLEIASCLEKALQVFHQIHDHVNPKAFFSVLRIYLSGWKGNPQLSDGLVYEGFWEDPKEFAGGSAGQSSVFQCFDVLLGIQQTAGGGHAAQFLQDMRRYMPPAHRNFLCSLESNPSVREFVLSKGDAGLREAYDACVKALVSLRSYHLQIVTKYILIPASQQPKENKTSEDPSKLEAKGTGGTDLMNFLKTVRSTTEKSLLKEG

[2] = biological target: T1, Indoleamine 2,3-dioxygenase 1; test: Inhibition of human recombinant N-terminus 6X-histidine-tagged indoleamine 2,3-dioxygenase expressed in Escherichia coli assessed as inhibition of L-tryptophan to N-formylkynurenine formation measured as residual enzyme activity at 1 uM incubated for 10 mins prior to substrate addition measured …; values are per cent of control
Target sequence in this assay (P14902 whole entry, looked up): as above

[3] = biological target: T1, Indoleamine 2,3-dioxygenase 1; test: Inhibition of human recombinant N-terminus 6X-histidine-tagged indoleamine 2,3-dioxygenase expressed in Escherichia coli assessed as inhibition of L-tryptophan to N-formylkynurenine formation measured as residual enzyme activity at 0.1 uM incubated for 10 mins prior to substrate addition measured …
Target sequence in this assay (P14902 whole entry, looked up): as above

[4] = biological target: T1, Indoleamine 2,3-dioxygenase 1; test: Inhibition of human recombinant N-terminus 6X-histidine-tagged indoleamine 2,3-dioxygenase expressed in Escherichia coli assessed as inhibition of L-tryptophan to N-formylkynurenine formation measured as residual enzyme activity incubated for 10 mins prior to substrate addition measured after 30 mins by UV-vis spectrophotometric analysis relative to DMSO-treated control
Target sequence in this assay (P14902 whole entry): as the sequence (P14902 whole entry, looked up) above

Row | residual activity [1] [%] | residual activity [2] [%] | residual activity [3] [%] | IC50 [4] [nM] | Ki [4] [nM] | SMILES
1 | 11 | 23 | 71 | 460 | 326 | Nc1c(C(=O)O)c2nc3c(C(=O)O)cccc3oc-2cc1=O [CINNABARINIC ACID]
2 | 80 | 87 | 84 | – | – | Nc1cc2nc3cc(CO)ccc3oc-2cc1=O
3 | 74 | 82 | 85 | – | – | CC(=O)Nc1cc2nc3cc(CO)ccc3oc-2cc1=O
4 | 95 | 100 | 98 | – | – | Cc1c2nc3c(C)cccc3oc-2cc(=O)c1N
5 | 92 | 99 | 100 | – | – | CC(=O)Nc1cc2nc3c(O)cccc3oc-2cc1=O
6 | 30 | 60 | 94 | – | – | COC(=O)c1c2nc3c(C(=O)OC)cccc3oc-2cc(=O)c1N
7 | 34 | 75 | 95 | – | – | COC(=O)c1c2nc3cc(CO)ccc3oc-2cc(=O)c1N
8 | 74 | 94 | 82 | – | – | Nc1cc2nc3ccccc3oc-2cc1=O
9 | 24 | 29 | 66 | – | – | COC(=O)c1c2nc3c(C(=O)OC)ccc(C)c3oc-2c(C)c(=O)c1N
10 | 97 | 100 | 100 | – | – | Nc1cc2nc3c(O)cccc3oc-2cc1=O
11 | 91 | 100 | 99 | – | – | Cc1ccc2oc3cc(=O)c(N)cc-3nc2c1
